In PMC12591170, “Glabridin‐Gold(I) Complex as a Novel Immunomodulatory Agent Targeting TrxR and MAPK Pathways for Synergistic Enhancement of Antitumor Immunity” (Advanced Science, 2025):

How the values were obtained:
[1] = system: HepG2 cells; assay: ROS levels assay (DHE, DCFH-DA); format: cell-based, human; settings: HepG2, 6 h, DHE and DCFH-DA probes
Method: HepG2 cells were seeded in 12‐well plate (5 × 10^4 cells per well). 4 mM N‐acetylcysteine (NAC) was applied for 1 h pretreatment. DMF (0.1%), AF (4 µM) or different concentrations of 6d (2, 4, 8 µM) were added in the wells for 6 h incubation. 10 µM DHE or DCFH‐DA (dissolved in DMEM) probes were applied for 30 min staining. The cells were photographed by the fluorescence microscopy after washing twice.

[2] = system: Hepa1-6 cells; assay: MTT antiproliferative assay, Hepa1-6; format: cell-based; settings: Hepa 1-6 cells
Method: All cells were incubated at 37 °C by DMEM complete medium (containing 1% penicillin−streptomycin and 12% FBS) in 5% CO2 incubator. 2–5 × 10^3 cells were cultured in 96‐well plates and each well contained 100 µL complete medium. OXA was dissolved in water, and all other complexes were dissolved in DMF. After cells adhered in the wells, different concentrations of complexes were diluted in 100 µL complete medium and added in the wells. The final volume in the each well was 200 µL and the content of DMF was maximum 0.5%. After 72 h incubation, the antiproliferative activity was tested by MTT assay.

[3] = system: HepG2 cells; assay: DAMPs / ICD effect (CRT, HMGB1, ATP release); format: cell-based, human
Method: 6‐well plate was applied to incubate 2 × 10^5 HepG2 cells. […] After treatment, the liquid was collected for extracellular ATP release assay by ATP Assay kit.
(§1) HepG2 cells were incubated in 6 cm culture dishes and treated with different complexes. The treated cells were lysed with lysis buffer (RIPA:PMSF:phosphatase inhibitor:protease inhibitor = 100:1:1:1). The lysed cells were further broken by sonication, and proteins were isolated by centrifugation. The protein concentrations were detected by BCA assay. 10% SDS PAGE gel was usually applied to separate the different kDa of proteins, and more than 200 kDa of proteins were separated using 8% SDS PAGE gel. After seperation, proteins were transferred onto polyvinylidene difluoride (PVDF) membranes. The target proteins were labeled by various specific primary antibodies at 4 °C overnight. Then, the membranes were treated with anti‐rabbit or anti‐mouse secondary antibody for 2 h. Tris buffered saline with tween 20 (TBST) was applied to wash the membranes after each operation above. The target proteins’ bands were detected by the enhanced chemiluminescence (ECL) procedure.
5 × 10^4 HepG2 cells were treated with complexes in 24‐well plates for 24 h. Subsequently, cells were fixed with 4% paraformaldehyde. Various specific antibodies were added for incubation at 4 °C overnight after cells were permeabilized with Triton X‐100 (except for membrane proteins) and blocked with BSA. Then, the cells were incubated with fluorescently‐labeled secondary antibodies in darkness for 2 h. After that, DAPI was added to stain nuclear in darkness. PBS was applied for washing after each operation above (Tris buffered saline (TBS) was applied for washing if phosphorylated protein was analyzed). The cell images were captured by the fluorescence microscopy.

[4] = system: immune cells in Hepa1-6 tumor and spleen tissue; assay: In vivo immune cell and marker analysis (flow cytometry, immunofluorescence, immunohistochemistry); design: species or system C57BL/6 mice
Method: All mice were 6–8 weeks old males and procured from Hangzhou Medical College, located in Hangzhou, China. […] 2 × 10^6 Hepa1‐6 cells in 100 µL DMEM were subcutaneously seeded in underarms of C57BL/6 mice. […] Meanwhile, the mice weights and tumor volume were recorded, and the calculation formula of tumor volume was Volume = Width^2 × Length/2. After 13 days, all mice were sacrificed for collection of tumors, hearts, livers, spleens, lungs and kidneys. Collagenase IV (1 mg mL^−1) and DNase I (1 µg mL^−1) were applied to digest a part of the tumor tissue into cell suspension, and lysis buffer was used to remove red blood cells. The prepared cells above were stained with antibodies (anti‐CD3e‐FITC, and anti‐CD8a‐PE; anti‐CD11c‐APC, anti‐CD80‐PE, and anti‐CD86‐FITC; anti‐CD45‐Percp, anti‐CD11b‐APC, and anti‐Ly‐6G/Ly‐6C(Gr‐1)‐FITC; anti‐CD11b‐APC, anti‐CD206‐PE, and CD86‐FITC). CD3^+CD8^+ T cells, CD80^+CD86^+ DCs, CD11b^+Gr‐1^+ MDSCs, CD206^−CD86^+ M1‐type macrophages and CD206^+CD86^− M2‐type macrophages were analyzed by flow cytometry. Then, another part of tumor tissues were fixed with 4% paraformaldehyde, embedded in paraffin, cut into slices and stained with antibodies for immunofluorescence and immunohistochemistry analysis.

[5] = system: MEK1/2; assay: CETSA and ITDR assay, MEK1/2; format: binding, human; settings: HepG2 proteins, 8 µM, ITDR at 78 °C
Method: The treated HepG2 cells in 10 cm culture dishes were collected and washed with PBS. The collected cells were repeatedly frozen and thawed for 3 times by liquid nitrogen and 37 °C water bath. Then, proteins were isolated by centrifugation. The isolated proteins were divided into different tubes and incubated with same concentration of 6d at different temperature. Western blot was applied for CETSA by analyzing the band intensity of different temperature groups.
The temperature, which results in significant band differences between 6d and control group, was selected for ITDR assay. The isolated proteins were divided into different tubes and incubated with different concentration of 6d at same temperature. The binding between 6d and target protein was assessed by analyzing the band intensity of different concentration groups.

[6] = Solubility by UV absorbance; format: physicochemical; settings: PBS: DMF = 200:1, 298K
Method: Weigh a certain amount of 6d, dissolve it in a PBS: DMF = 200:1 solution, and mix to obtain the high‐concentration solution. Then dilute the original solution to prepare solutions of different concentrations. The ultraviolet absorbance values at the maximum absorption wavelength (237 nm) were measured in sequence, and the standard curve was plotted (Figure S40, Supporting Information). Prepare the saturated 6d solution by the same method. After centrifugation, take the supernatant and dilute it 7 times.

[7] = mouse, in vivo
[8] = Stability analysis by 1H NMR; format: physicochemical
Method: 5 mM of complex 6d was incubated with DMSO‐d6 or the mixed solution (DMSO‐d6 /D2O = 9:1) or the same mixed solution with 5 mM of GSH for different times (0 – 72 h), and the ^1H NMR spectra were acquired. The stability of AF was determined by the same method.

[9] = system: HIF-1α; assay: Western blot of HIF-1α in HepG2; format: cell-based, human; settings: HepG2, 24 h
Method: as §1

[10] = mouse
[11] = system: immature DCs; assay: DC maturation assay with medium of treated Hepa1-6 cells; format: cell-based, C57BL/6 mouse; settings: 24 h
Method: The monocytes were extracted from the leg bone marrow of a C57BL/6 mouse and incubated in the 1640 complete medium with rmGM‐CSF (20 ng mL^−1) and IL‐4 (20 ng mL^−1). The medium was replaced partially every other day, and immature DCs were differentiated after 7 days. […] The medium from treated Hepa1‐6 cells was collected and coincubated with the differentiated DCs for 24 h. After cells collection, the coincubated DCs were labeled with CD11c antibody, CD80 antibody and CD86 antibody. Then, the DC maturation ratio was analyzed by a flow cytometer.

[12] = flow cytometry and immunofluorescence

With `CCn1ccn(CCCCCOc2ccc([C@@H]3COc4c(ccc5c4C=CC(C)(C)O5)C3)c(OCCCCCn3ccn(CC)[c]3=[Au][Br])c2)[c]1=[Au][Br]` [6d] the ROS level [1] was “elevated ROS level”, the “times more toxic than GLA” value [2] was 34 times and the “time required for ATP release” value ([3]; HepG2, 8 µM, ATP assay kit) was 48 h. For the same compound, the “CRT expression (western blot)” value ([3]; HepG2, 24 h) was “CRT upregulation”, the “HMGB1 expression (western blot)” value ([3]; HepG2, 24 h) was “HMGB1 downregulation” and the “DC maturation in spleen and tumor tissues” value [4, 12] was “induced DC maturation”. For the same compound, the “macrophage polarization in tumor” value [4, 12] was “significantly promoted M1‐type macrophage polarization”, the “T lymphocyte infiltration in tumor” value ([4]; flow cytometry and immunohistochemistry) was “promoted T lymphocyte infiltration” and the “Arg-1 expression in tumor tissue” value ([4]; immunofluorescence) was “downregulation”. The “CRT exposure in tumor tissue” value ([4]; immunofluorescence) was “promoted CRT exposure”, the “GzmB expression in tumor tissue” value ([4]; immunofluorescence, OXA vs model group, 6d vs OXA group) was “significantly upregulated GzmB expression” and the “MDSC infiltration in tumor” value ([4]; vs model group, 13 days) was “reducing the infiltration”. The “Treg infiltration in tumor (Foxp3)” value ([4]; vs model group, 13 days) was “reducing the infiltration”, the “binding to MEK1/2 (CETSA, ITDR)” value [5] was “significant binding” and the solubility [6] was 108 µg/mL. For the same compound, the safe dose [7] was 5 mg/kg, the “time after which 1H NMR spectra began to change / showed new peaks” value ([8]; 5 mM complex, DMSO-d6/D2O 9:1 containing GSH (5 mM)) was 12 h and the “stability by 1H NMR” value ([8]; DMSO-d6, over 72 h) was “remained stable”. The “stability by 1H NMR” value ([8]; DMSO-d6/D2O (v1/v2 = 9:1), over 72 h) was “remained stable”, the “HIF-1α expression (western blot)” value [9] was “significantly inhibited” and the “metabolic stability in whole blood” value ([10]; 2 h) was “high metabolic stability”. The T1/2 ([10]; blood) was “∞”, the “Percent Remaining (%) (Mean, n=2) 0 min” value ([10]; blood, 0 h) was 100% and the “Percent Remaining (%) (Mean, n=2) 5 min” value ([10]; blood, 5 min) was 98.8%. The “Percent Remaining (%) (Mean, n=2) 15 min” value ([10]; blood, 0.25 h) was 107%, the “Percent Remaining (%) (Mean, n=2) 30 min” value ([10]; blood, 0.5 h) was 103% and the “Percent Remaining (%) (Mean, n=2) 60 min” value ([10]; blood, 1 h) was 103%. For the same compound, the “Percent Remaining (%) (Mean, n=2) 120 min” value ([10]; blood, 2 h) was 108% and the DC maturation [11] was “significantly induced DC maturation”.
